For one experiment, the system named is HCT-116 cell growth. Description: Whole Cell Cytotoxicity Assay: Sulforhodamine B. The following applies: Homo sapiens, HCT-116; 100 μM compound; 96 hours; SRB staining. The experiment is classed as cell-based, Human. How it is done:
Human tumor-derived cell lines, HCT116 or MCF7 (ATCC) were plated in a 96 well plate in DMEM containing 10% fetal bovine serum and 2 mM L-glutamine at a density of 500 HCT116 cells or 1,000 MCF7 cells per well and incubated at 37° C., 5% CO2, for 24 hours prior to the addition of experimental compounds. Compounds were added using the dilution series indicated to duplicate plates and the cells were incubated in media plus compound for 96 hours. An additional plate was fixed in 10% TCA at the time of the addition of compound to provide a measurement of the cell population at time zero, the time of drug addition. Following the 96 hour incubation, cells were fixed in situ by gently aspirating off the culture media and then adding 50 ul of ice cold 10% TCA per well and incubation at 4° C. for 60 minutes. The plates were washed with tap water five times and allowed to air dry for 5 minute. 50 ul of a 0.4% (w/v) Sulforhodamine B solution in 1% (v/v) acetic acid was added per well and the cells were incubated for 30 minutes at room temperature. Following staining, plates were washed four times with 1% acetic acid to remove any unbound dye and then allowed to air dry for 5 minutes. The stain was solubilized with 100 ul of 10 mM Tris pH 10.5 per well and placed on an orbital rotator for 5 minutes. The absorbance was read at 570 nm. Percentage growth was calculated using the absorbance readings from the time zero plate (Tz) and the dilution series plate […] which included a column of cells grown in media without compound as a control (C) using the formulas: [(Ti−Tz)/(C−Tz)]×100 for concentrations for which Ti>/=Tz [(Ti−Tz)/Tz]×100 for concentrations for which Ti<Tz.
Three dose response parameters were calculated for each experimental agent. Growth inhibition of 50% (GI50) was calculated from [(Ti−Tz)/(C−Tz)]×100=50, which was the drug concentration resulting in a 50% reduction in the net protein increase (as measured by SRB staining) in control cells during the drug incubation. The drug concentration resulting in total growth inhibition (TGI) was calculated from Ti=Tz. The LC50 (concentration of drug resulting in a 50% reduction in the measured protein at the end of the drug treatment as compared to that at the beginning) indicating a net loss of cells following treatment was calculated from [(Ti−Tz)/Tz]×100=−50. Values are calculated for each of these three parameters if the level of activity was reached; however, if the effect was not reached or was exceeded, the value for that parameter is expressed as greater or less than the maximum or minimum concentration tested.

The next experiment addresses T1, recombinant Aurora A (Homo sapiens, UniProt O14965).
T1 construct: purchased Upstate, Lake Placid, N.Y
T1 sequence (O14965 1-403): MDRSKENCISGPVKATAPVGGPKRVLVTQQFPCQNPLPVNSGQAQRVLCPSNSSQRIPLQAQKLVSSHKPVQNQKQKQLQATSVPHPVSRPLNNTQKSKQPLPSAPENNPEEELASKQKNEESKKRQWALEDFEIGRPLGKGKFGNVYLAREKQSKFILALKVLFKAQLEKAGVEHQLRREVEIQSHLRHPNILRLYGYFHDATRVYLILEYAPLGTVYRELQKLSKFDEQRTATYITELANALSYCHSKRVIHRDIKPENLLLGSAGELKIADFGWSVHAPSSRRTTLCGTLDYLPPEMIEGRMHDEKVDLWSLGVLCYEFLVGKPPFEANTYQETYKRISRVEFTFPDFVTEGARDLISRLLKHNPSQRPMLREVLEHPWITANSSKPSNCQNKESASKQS
The experiment is described as follows: Aurora A (Aurora 2) Inhibition Assay (Z'-Lyte). The experiment is classed as biochemical. The following applies: 100 μM compound; ATP 10 μM; 1 h. How it is done:
Compounds were tested for their potency against recombinant Aurora A (Upstate, Lake Placid, N.Y.) using the PanVera Z'-Lyte kinase assay kit-Ser/[…] peptide (Invitrogen, Carlsbad, Calif.). […] Assays were carried out in half-area 96-well white polystyrene assay plates (Corning, Corning, N.Y.) in a final volume of 20 μl. The reaction was allowed to proceed for 1 h at room temperature in the dark, at which point the development reagent and stop reagent were added according to the manufacturer's instructions. Coumarin (Ex. 400 nm, Em. 465 nm) and fluorescein (Ex. 400 nm, Em. 565 nm) fluorescence values were measured on a SpectraFluor Plus plate reader (Tecan, Durham, N.C.). The emission ratio (coumarin/fluorescein) was determined and used to calculate the percent phosphorylation for each well. […] Typically 20-40% of the substrate was phosphorylated in wells without inhibitor. Dose-response curves of relative Aurora A activity vs. inhibitor concentration were plotted with Grafit (Erithacus Software, Horley, Surrey, UK).

Another experiment deals with T2, Aurora B kinase (Homo sapiens, UniProt Q96GD4).
T2 construct: purchased BPS Biosciences, San Diego, Calif
The experiment is described as follows: Aurora B (Aurora 1) Inhibition Assay. The following applies: 100 μM compound; ATP 50 μM; 16 h. It is filed as biochemical. How it is done: Assays for Aurora B kinase inhibition were carried out similarly to those for Aurora A kinase (see above) with the following modifications. Aurora B kinase (BPS Biosciences, San Diego, Calif.) was used as the enzyme, at a concentration was 2.5 μg/mL. The ATP concentration was 50 μM, and the kinase reaction was allowed to proceed for 16 h. Sodium orthovanadate (20 μM) was added to the buffer to inhibit contaminating phosphatases.

T2 sequence (Q96GD4 whole entry): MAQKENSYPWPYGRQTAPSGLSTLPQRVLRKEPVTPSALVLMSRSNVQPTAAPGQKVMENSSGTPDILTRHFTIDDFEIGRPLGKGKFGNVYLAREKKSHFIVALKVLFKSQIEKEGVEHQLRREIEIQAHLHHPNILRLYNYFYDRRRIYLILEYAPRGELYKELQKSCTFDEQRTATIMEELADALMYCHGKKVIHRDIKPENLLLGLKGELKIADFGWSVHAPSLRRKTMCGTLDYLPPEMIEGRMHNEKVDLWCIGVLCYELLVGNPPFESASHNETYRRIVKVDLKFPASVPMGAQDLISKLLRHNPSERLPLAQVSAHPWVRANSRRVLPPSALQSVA

Consider `Cc1cc(Nc2cc(N3CCN(C)CC3)nc(C#Cc3ccccc3)n2)n[nH]1` [Example 30, 6-(4-methylpiperazin-1-yl)-N-(3-methyl-1H-pyrazol-5-yl)-2-(phenylethynyl)pyrimidin-4-amine], for which the inhibition at 100 µM in the experiment on HCT-116 cell growth worked out at 99%; on recombinant Aurora A, 100%; on Aurora B kinase, 97%.

As to `Cc1cc(Nc2cc(N3CCN(C)CC3)nc(/C=C/c3ccco3)n2)n[nH]1` [Example 60, 2-((E)-2-(furan-2-yl)vinyl)-N-(5-methyl-1H-pyrazol-3-yl)-6-(4-methylpiperazin-1-yl)pyrimidin-4-amine], the results for the inhibition at 100 µM with HCT-116 cell growth, on recombinant Aurora A and on Aurora B kinase were 98%, 100% and 99%, respectively.

For the compound `COC(=O)c1cc(Nc2cc(C)n[nH]2)nc(/C=C/c2ccccc2)n1` [Example 26, methyl 6-[(3-methyl-1H-pyrazol-5-yl)amino]-2-[(E)-2-phenylvinyl]pyrimidine-4-carboxylate], the inhibition at 100 µM was 98% with HCT-116 cell growth, 99% at recombinant Aurora A and 95% against Aurora B kinase.

These data come from patent US7563787B2, “Substituted pyrazole compounds” (Miikana Therapeutics, Inc., priority 2005, dated 2009).
